Literature values as cited in patent US8551962B2, “High dosage doramectin formulation” (Zoetis LLC, priority 2009, dated 2013).

Settings: beef cattle; single dose of 200 μg/Kg of body weight

SMILES: CO[C@H]1C[C@H](O[C@H]2[C@H](C)O[C@@H](O[C@@H]3/C(C)=C/C[C@@H]4C[C@@H](C[C@]5(C=C[C@H](C)[C@@H](C6CCCCC6)O5)O4)OC(=O)[C@@H]4C=C(C)[C@@H](O)[C@H]5OC/C(=C\C=C\[C@@H]3C)[C@]54O)C[C@@H]2OC)O[C@@H](C)[C@@H]1O [doramectin]
- withhold time: 35 days
